Consider one compound from ChEMBL document CHEMBL4007479, “Immunoregulatory effect assessment of a novel melanin and its carboxymethyl derivative” (2017).

Format in all cases: functional
Test [1] relates to Mus musculus. Description: Immuno-regulatory activity in cyclophosphamide-induced immunocompromised Kunming mouse model assessed as recovery from spleen damage by measuring spleen weight index at 50 mg/kg administered once daily via gavage for 30 consecutive days measured after 12 hrs of fasting following last dose (reference value: 4.59 +/- 0.28).
The test system of test [2] is Mus musculus. Description: Immuno-regulatory activity in cyclophosphamide-induced immunocompromised Kunming mouse model assessed as SOD activity in serum at 50 mg/kg administered once daily via gavage for 30 consecutive days measured after 12 hrs of fasting following last dose on day 30 (reference value: 91.98 +/- 3.32).
The test system of test [3] is Mus musculus. Description: Immuno-regulatory activity in cyclophosphamide-induced immunocompromised Kunming mouse model assessed as macrophage elimination ability against foreign substances by measuring carbon clearance index at 200 mg/kg administered once daily via gavage for 30 consecutive days measured after 12 hrs of fasting following last dose (reference value: 2.68 +/- 0.3).

The test system of test [4] is Mus musculus. Description: Immuno-regulatory activity in cyclophosphamide-induced immunocompromised Kunming mouse model assessed as SOD activity in spleen at 50 mg/kg administered once daily via gavage for 30 consecutive days measured after 12 hrs of fasting following last dose on day 30 (reference value: 94.84 +/- 3.28).
The test system of test [5] is Mus musculus. As to the kind of experiment: Immuno-regulatory activity in cyclophosphamide-induced immunocompromised Kunming mouse model assessed as GSH-PX activity in liver at 200 mg/kg administered once daily via gavage for 30 consecutive days measured after 12 hrs of fasting following last dose on day 30 (reference value: 9.52 +/- 0.26).
In test [6] the test system is Mus musculus. As to the kind of experiment: Immuno-regulatory activity in cyclophosphamide-induced immunocompromised Kunming mouse model assessed as peritoneal macrophage phagocytosis index at 200 mg/kg administered once daily via gavage for 30 consecutive days measured after 12 hrs of fasting following last dose by Giemsa staining based assay (reference value: 0.5 +/- 0.03).

Test [7] deals with Mus musculus. Description: Immuno-regulatory activity in cyclophosphamide-induced immunocompromised Kunming mouse model assessed as concanavalin A-induced lymphocyte proliferation stimulate index in spleen at 200 mg/kg administered once daily via gavage for 30 consecutive days measured after 12 hrs of fasting following last dose on day 30 by MTT assay (reference value: 0.054 +/- 0.001).

In test [8] the test system is Mus musculus. Description: Immuno-regulatory activity in cyclophosphamide-induced immunocompromised Kunming mouse model assessed as recovery from thymus damage by measuring thymus weight index at 200 mg/kg administered once daily via gavage for 30 consecutive days measured after 12 hrs of fasting following last dose (reference value: 0.98 +/- 0.14).
For test [9], the system named is Mus musculus. Description: Immuno-regulatory activity in cyclophosphamide-induced immunocompromised Kunming mouse model assessed as enhancement of T cell-mediated delayed-type hypersensitivity by measuring increase in paw weight at 200 mg/kg administered once daily via gavage for 30 consecutive days and SRBC immunization on day 26 measured after 12 hrs of fasting following last dose on day 30 relative to control.

The subject of test [10] is Mus musculus. Description: Immuno-regulatory activity in cyclophosphamide-induced immunocompromised Kunming mouse model assessed as enhancement of B cell-mediated humoral immunity by measuring antibody producing cells in spleen against SRBC at 50 mg/kg administered once daily via gavage for 30 consecutive days measured after 12 hrs of fasting following last dose on day 30 (reference value: 0.48 +/- 0.05).

Test [11] concerns Mus musculus. Description: Immuno-regulatory activity in cyclophosphamide-induced immunocompromised Kunming mouse model assessed as enhancement of B cell-mediated humoral immunity by measuring SRBC half hemolysis value at 200 mg/kg administered once daily via gavage for 30 consecutive days and SRBC immunization on day 26 measured after 12 hrs of fasting following last dose on day 30 (reference value: 173.42 +/- 7.75).

Test [12] has as its system Mus musculus. Description: Immuno-regulatory activity in cyclophosphamide-induced immunocompromised Kunming mouse model assessed as GSH-PX activity in serum at 50 mg/kg administered once daily via gavage for 30 consecutive days measured after 12 hrs of fasting following last dose on day 30 (reference value: 5.66 +/- 0.17).
The subject of test [13] is Mus musculus. Description: Immuno-regulatory activity in cyclophosphamide-induced immunocompromised Kunming mouse model assessed as MDA content in serum at 50 mg/kg administered once daily via gavage for 30 consecutive days measured after 12 hrs of fasting following last dose on day 30 (reference value: 2.77 +/- 0.05).
The subject of test [14] is Mus musculus. Description: Immuno-regulatory activity in cyclophosphamide-induced immunocompromised Kunming mouse model assessed as SOD activity in spleen at 200 mg/kg administered once daily via gavage for 30 consecutive days measured after 12 hrs of fasting following last dose on day 30 (reference value: 94.84 +/- 3.28).
Test [15] relates to Mus musculus. Description: Immuno-regulatory activity in cyclophosphamide-induced immunocompromised Kunming mouse model assessed as MDA content in kidney at 50 mg/kg administered once daily via gavage for 30 consecutive days measured after 12 hrs of fasting following last dose on day 30 (reference value: 2.35 +/- 0.06).
The subject of test [16] is Mus musculus. Description: Immuno-regulatory activity in cyclophosphamide-induced immunocompromised Kunming mouse model assessed as MDA content in liver at 200 mg/kg administered once daily via gavage for 30 consecutive days measured after 12 hrs of fasting following last dose on day 30 (reference value: 3.34 +/- 0.18).
The test system of test [17] is Mus musculus. As to the kind of experiment: Immuno-regulatory activity in cyclophosphamide-induced immunocompromised Kunming mouse model assessed as SOD activity in liver at 200 mg/kg administered once daily via gavage for 30 consecutive days measured after 12 hrs of fasting following last dose on day 30 (reference value: 160.65 +/- 3.12).
The subject of test [18] is Mus musculus. As to the kind of experiment: Immuno-regulatory activity in cyclophosphamide-induced immunocompromised Kunming mouse model assessed as MDA content in spleen at 200 mg/kg administered once daily via gavage for 30 consecutive days measured after 12 hrs of fasting following last dose on day 30 (reference value: 4.9 +/- 0.11).
Test [19] deals with Mus musculus. Description: Immuno-regulatory activity in cyclophosphamide-induced immunocompromised Kunming mouse model assessed as SOD activity in serum at 200 mg/kg administered once daily via gavage for 30 consecutive days measured after 12 hrs of fasting following last dose on day 30 (reference value: 91.98 +/- 3.32).
Test [20] has as its system Mus musculus. As to the kind of experiment: Immuno-regulatory activity in cyclophosphamide-induced immunocompromised Kunming mouse model assessed as GSH-PX activity in spleen at 200 mg/kg administered once daily via gavage for 30 consecutive days measured after 12 hrs of fasting following last dose on day 30 (reference value: 7.97 +/- 1.21).
The test system of test [21] is Mus musculus. Description: Immuno-regulatory activity in cyclophosphamide-induced immunocompromised Kunming mouse model assessed as GSH-PX activity in liver at 50 mg/kg administered once daily via gavage for 30 consecutive days measured after 12 hrs of fasting following last dose on day 30 (reference value: 9.52 +/- 0.26).
Test [22] deals with Mus musculus. Description: Immuno-regulatory activity in cyclophosphamide-induced immunocompromised Kunming mouse model assessed as SOD activity in kidney at 50 mg/kg administered once daily via gavage for 30 consecutive days measured after 12 hrs of fasting following last dose on day 30 (reference value: 198.82 +/- 9.98).

Regarding `O=C(O)C1c2cc(O)c(O)c3sc4c5c(O)[nH]c6cc(O)c(O)c(c65)c5c6ccc7ccc1c(c76)n(c23)c45` (configuration not stated), the Activity_index in test [1] came out at 4.61 mg/g; in test [3], 3.54; in test [6] it was 0.79; in test [7], 0.072; in test [8], 1.37 mg/g. Also, the Activity in test [2] turned out to be 94.15; in [4], 106.25; in [5] it was 16.1; in test [9], 79.3%; in test [10], 0.52; in [11], 182.25. Further, the Activity in test [12] stood at 5.76; in test [13] it was 2.66; in [14], 110.54; in [15], 2.07; in test [16], 2.25; in test [17], 202.26. Further, the Activity in test [18] came to 3.13; in [19], 104.09; in [20] it was 11.99; in test [21] it was 9.76; in [22], 218.42.
